According to ChEMBL document CHEMBL1148680 (Bioorg Med Chem Lett, 2006):

Key:
hERG (KCNH2) [1] = target: T1, hERG (KCNH2) (Homo sapiens, UniProt Q12809); assay: Inhibition of [3H]dofetilide binding to HERG expressed in HEK293 cells at 300 nM; assay type: cell-based; settings: HEK293 cells that express hERG, probe [3H]dofetilide
hERG (KCNH2) [2] = target: T1, hERG (KCNH2); assay: Inhibition of [3H]dofetilide binding to HERG expressed in HEK293 cells at 100 nM; assay type: cell-based; settings: HEK293 cells that express hERG, probe [3H]dofetilide
[3] = system: Human immunodeficiency virus; assay: Antiviral activity against HIV BaL in PM1 cell; assay type: functional; settings: Human immunodeficiency virus 1, BaL
[4] = Distribution coefficient, log D of the compound; assay type: physicochemical; settings: octanol/water
[5] = target: C-C chemokine receptor type 5 (Homo sapiens, UniProt P51681); assay: Inhibition of [125I]MIP-1beta binding to CCR5 expressed in HEK293 cells; assay type: cell-based
Sequence of C-C chemokine receptor type 5 (P51681 whole entry): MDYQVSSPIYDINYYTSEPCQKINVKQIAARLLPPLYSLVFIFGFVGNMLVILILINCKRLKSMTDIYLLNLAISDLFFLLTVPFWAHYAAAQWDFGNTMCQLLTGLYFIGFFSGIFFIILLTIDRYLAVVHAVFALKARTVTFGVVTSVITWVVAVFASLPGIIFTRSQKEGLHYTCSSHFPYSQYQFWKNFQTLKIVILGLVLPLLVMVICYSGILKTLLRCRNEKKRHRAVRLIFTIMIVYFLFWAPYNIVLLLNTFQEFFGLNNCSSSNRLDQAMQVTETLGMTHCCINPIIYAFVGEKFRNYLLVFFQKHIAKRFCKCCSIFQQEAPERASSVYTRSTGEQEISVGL

[6] = Dissociation constant, pKa of the compound; assay type: physicochemical
[7] = target: Voltage-gated inwardly rectifying potassium channel KCNH2 (Homo sapiens, UniProt Q12809); assay: Inhibition of [3H]dofetilide binding to HERG expressed in HEK293 cells; assay type: cell-based
Sequence of Voltage-gated inwardly rectifying potassium channel KCNH2 (Q12809 whole entry): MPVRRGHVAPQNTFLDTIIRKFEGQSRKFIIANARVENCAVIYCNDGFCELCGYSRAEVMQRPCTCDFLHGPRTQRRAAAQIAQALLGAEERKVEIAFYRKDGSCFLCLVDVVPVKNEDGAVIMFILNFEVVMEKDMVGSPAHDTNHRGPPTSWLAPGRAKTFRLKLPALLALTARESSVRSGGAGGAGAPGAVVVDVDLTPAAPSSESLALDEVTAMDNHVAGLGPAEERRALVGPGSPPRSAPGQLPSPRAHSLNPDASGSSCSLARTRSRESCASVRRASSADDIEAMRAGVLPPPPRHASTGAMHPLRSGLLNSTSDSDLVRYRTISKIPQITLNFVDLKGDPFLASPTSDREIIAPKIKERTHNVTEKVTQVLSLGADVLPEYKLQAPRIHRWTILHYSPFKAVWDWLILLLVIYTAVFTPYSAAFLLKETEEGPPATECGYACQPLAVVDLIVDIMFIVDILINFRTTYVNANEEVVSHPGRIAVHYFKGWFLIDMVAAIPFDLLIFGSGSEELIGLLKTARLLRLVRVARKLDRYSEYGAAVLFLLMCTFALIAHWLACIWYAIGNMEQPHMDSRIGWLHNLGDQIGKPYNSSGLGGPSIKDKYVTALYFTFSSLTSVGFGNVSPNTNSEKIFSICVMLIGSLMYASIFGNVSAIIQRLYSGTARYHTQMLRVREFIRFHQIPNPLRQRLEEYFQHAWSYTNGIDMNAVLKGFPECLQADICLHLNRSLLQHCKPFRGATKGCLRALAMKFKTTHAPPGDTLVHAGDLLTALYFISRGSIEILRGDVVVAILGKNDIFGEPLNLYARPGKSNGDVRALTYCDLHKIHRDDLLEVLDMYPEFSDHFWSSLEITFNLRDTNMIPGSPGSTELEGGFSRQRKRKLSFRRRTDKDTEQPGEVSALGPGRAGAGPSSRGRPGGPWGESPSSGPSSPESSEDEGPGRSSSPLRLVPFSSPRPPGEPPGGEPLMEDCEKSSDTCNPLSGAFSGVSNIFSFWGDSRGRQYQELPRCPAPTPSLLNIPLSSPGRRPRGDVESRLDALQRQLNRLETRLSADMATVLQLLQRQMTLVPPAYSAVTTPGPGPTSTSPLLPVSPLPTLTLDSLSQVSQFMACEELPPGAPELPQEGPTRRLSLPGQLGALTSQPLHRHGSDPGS

T1 sequence (Q12809 whole entry): as above

| Compound | inhibition at 0.3 µM (hERG (KCNH2) [1]) [%] | IC90 [3] [nM] | IC50 [5] [nM] | other results |
| --- | --- | --- | --- | --- |
| Cc1nnc(C(C)C)n1C1CC2CCC(C1)N2CC[C@H](NC(=O)C1CCC1)c1ccccc1 (stereo partly drawn) | 30 | 8 | – | inhibition at 0.1 µM (hERG (KCNH2) [2]): 14%; logD [4]: 1.6 |
| Cc1nnc(Cc2ccccc2)n1C1CCN(CC[C@H](NC(=O)C2CCC2)c2ccccc2)CC1 | – | – | 250 | – |
| Cc1nnc(C)n1C1CCN(CC[C@H](NC(=O)C2CCC2)c2ccccc2)CC1 | – | – | 50 | inhibition at 0.1 µM (hERG (KCNH2) [2]): 5% |
| O=C(N[C@@H](CCN1CCC(n2cnc(Cc3ccccc3)n2)CC1)c1ccccc1)C1CCC1 | – | – | 5 | – |
| Cc1nc(C2CCN(CC[C@H](NC(=O)C3CCC3)c3ccccc3)CC2)no1 | – | – | 70 | – |
| O=C(N[C@@H](CCN1CCC(c2noc(Cc3ccccc3)n2)CC1)c1ccccc1)C1CCC1 | – | – | 20 | inhibition at 0.1 µM (hERG (KCNH2) [2]): 50% |
| Cc1nnc(C)n1C1CC2CCC(C1)N2CC[C@H](NC(=O)C1CCC1)c1ccccc1 (stereo partly drawn) | – | 13 | – | inhibition at 0.1 µM (hERG (KCNH2) [2]): 10% |
| Cc1nc2ccccc2n1C1CC2CCC(C1)N2CC[C@H](NC(=O)C1CCC1)c1ccccc1 (stereo partly drawn) | 80 | – | – | pKa [6]: 7.8 |
| Cc1nnc(C(C)C)n1C1CC2CCC(C1)N2CC[C@H](NC(=O)C1CCCC1)c1ccccc1 (stereo partly drawn) | 18 | 2 | – | logD [4]: 2.1 |
| O=C(Cc1ccc(F)cc1)NC1CCN(CC[C@H](NC(=O)C2CCC2)c2ccccc2)CC1 | – | – | 0.7 | – |
| Cc1nnc(C(C)C)n1C1CC2CCC(C1)N2CC[C@H](NC(=O)CCC(F)(F)F)c1ccccc1 (stereo partly drawn) | 14 | 14 | – | logD [4]: 1.8 |
| CC(=O)N(CCOc1ccc(NS(C)(=O)=O)cc1)CCc1ccc(NS(C)(=O)=O)cc1 | – | – | – | Activity [7]: 0.021 µM |
| Cc1nnc(C(C)C)n1[C@@H]1C[C@H]2CC[C@@H](C1)N2CC[C@H](NC(=O)C1CCC(F)(F)CC1)c1ccccc1 [MARAVIROC] | – | – | – | logD [4]: 2.1 |
| Cc1nnc(C(C)C)n1[C@H]1C[C@H]2CC[C@@H](C1)N2CC[C@H](NC(=O)C1CCC(F)(F)CC1)c1ccccc1 [MARAVIROC] | – | 2 | – | – |
| Cc1nc2ccccc2n1C1CC2COCC(C1)N2CC[C@H](NC(=O)C1CCC1)c1ccccc1 (stereo partly drawn) [OXOGRANATANE] | 70 | – | 39 | pKa [6]: 6 |
